Assay results from PMC8704606, “The Artemiside-Artemisox-Artemisone-M1 Tetrad: Efficacies against Blood Stage P. falciparum Parasites, DMPK Properties, and the Case for Artemiside” (Pharmaceutics, 2021).
Like-named read-outs stand apart in the source and are kept apart here.

What was measured:
[1] = system: early-stage (EG) Pf NF54 gametocytes; test: Luciferase assay, early-stage gametocytes; format: cell-based, Plasmodium falciparum; details: Plasmodium falciparum, NF54, 48 h, early-stage gametocytes >95% stages II-III; 48 h incubation; ± SEM
Procedure: (§1) For screening artemisox and M1 against early- (EG) and late-stage (LG) gametocytes, the luciferase assay with transgenic NF54-pfs16-GFP-Luc and NF54-Mal8p1.16-GFP-Luc parasite lines was used. With this assay, stage-specificity of gametocytocidal action was established (Table 2). Dose-response curves are in Figures S1d,e and S2d in the Supplementary Material 1. […] As was observed previously for artemisone and artemiside, dose responses for artemisox and M1 could not be obtained at 48 h against late-stage gametocytes.
(§2) The same reference compounds with the exception of CQ were used for the early- and late-stage gametocyte assays. Gametocytocidal activity was determined using the transgenic NF54-pfs16-GFP-Luc and NF54-Mal8p1.16-GFP-Luc reporter lines. Compounds were initially screened for activity at a fixed drug concentration of 1 µM, with dose responses subsequently determined using 2-fold serial drug dilutions for 48 h against early-stage gametocytes (day 5 post-induction population, ≥95% stages II–III) and 10-fold serial drug dilutions for 48 h or 72 h against late-stage gametocytes (day 10 post-induction population, ≥90% late-stage [stages IV–V]) (2 to 3% gametocytemia, 2% hematocrit) at 37 °C under 90% N2, 5% CO2, and 5% O2 [6]. No drug washout steps were performed during the drug incubation periods prior to the assays. In all cases, an interference assay was run in parallel to eliminate the possibility of false positives arising through compound interference with the luciferase readout.

[2] = system: asexual blood stages of Pf W2 (drug resistant); test: SYBR Green I proliferation assay, asexual blood stages, Pf W2; format: cell-based, Plasmodium falciparum
Procedure: (§3) Dose response curves are in Figures S1a–c and S2a–c in the Supplementary Material 1. Table 1 also includes the historical values for artemiside and artemisone obtained using the same assay.
(§4) All other assay conditions are as previously described. Compound working solutions were prepared from a 10 mM stock solution in 100% (vol/vol) dimethyl sulfoxide (DMSO, Sigma-Aldrich) in supplemented RPMI 1640 medium containing AlbuMAX II with a final DMSO concentration of 0.1% (vol/vol), previously determined to be nontoxic to blood stage asexual parasites and gametocytes. The dose-responses of the amino-artemisinins were assayed using a 2-fold serial drug dilution on in vitro 95% ring-stage parasites at 37 °C under 90% N2, 5% CO2, and 5% O2 atmospheric conditions, detecting SYBR green I fluorescence as the proliferative marker following a 96 h drug treatment (1% parasitemia and 1% hematocrit) using a GloMaxR-Multi+ Detection System (Promega). No drug washout steps were performed during drug incubation periods prior to the assays. Activity against the Pf drug-sensitive NF54 strain and the drug-resistant K1 (resistant to CQ, quinine, pyrimethamine, and cycloguanil) and W2 (resistant to CQ, quinine, pyrimethamine, and cycloguanil) strains was evaluated. Data analysis was performed using GraphPad Prism (version 6), intra-assay variability was monitored with Z-factors, and acceptable interassay reproducibility was determined from the percent coefficient of variation (CV).

D6 (CQ sensitive) = system: D6 (CQ sensitive); design: method as in ref S2; details: [3H]-hypoxanthine assay; ref S2; read-out: Antimalarial activities IC50 D6; cited from earlier work
[3] = design: method as in PMID 34097488; details: cited from earlier work
[4] = system: TM91-C235 (CQ and MFQ resistant); design: method as in ref S2; details: [3H]-hypoxanthine assay; ref S2; read-out: Antimalarial activities IC50 TM91-C235; cited from earlier work
[5] = system: asexual blood stages of Pf NF54 (drug sensitive); test: SYBR Green I proliferation assay, asexual blood stages, Pf NF54; format: cell-based, Plasmodium falciparum
Procedure: as §3, §4

[6] = system: asexual blood stages of Pf K1 (drug resistant); test: SYBR Green I proliferation assay, asexual blood stages, Pf K1; format: cell-based, Plasmodium falciparum
Procedure: as §3, §4

[7] = Cytotoxicity (LDH assay) against HepG2 cells; format: cell-based; details: human, HepG2 cells (hepatocellular carcinoma)
Procedure: Cytotoxicity against mammalian hepatocellular carcinoma cells (HepG2 cells) was determined using the lactate dehydrogenase assay (LDH, Biovision Inc., Milpitas, CA, USA). […] Compound working solutions were prepared from 10 mM stock solutions (100% DMSO) in complete DMEM to a final DMSO (Sigma-Aldrich) conc. of <0.1% (vol/vol). […] Data analysis was performed using GraphPad Prism (version 6) software.

[8] = system: TM93-C1088 (atovaquone and CQ resistant); design: method as in ref S2; details: [3H]-hypoxanthine assay; ref S2; read-out: Antimalarial activities IC50 TM93-C1088; cited from earlier work
[9] = system: late-stage (LG) Pf NF54 gametocytes; test: Luciferase assay, late-stage gametocytes; format: cell-based, Plasmodium falciparum; details: fixed dose of 1 µM, 48 h incubation
Procedure: as §1, §2

TM-C2B = system: TM-C2B; design: method as in ref S2; details: [3H]-hypoxanthine assay; ref S2; read-out: Antimalarial activities IC50 TM-C2B; cited from earlier work
7G8 (CQ resistant) = system: 7G8 (CQ resistant); design: method as in ref S2; details: [3H]-hypoxanthine assay; ref S2; read-out: Antimalarial activities IC50 7G8; cited from earlier work
W2 (CQ resistant) = system: W2 (CQ resistant); design: method as in ref S2; details: [3H]-hypoxanthine assay; ref S2; read-out: Antimalarial activities IC50 W2; cited from earlier work
[10] = system: late-stage (LG) Pf NF54 gametocytes; design: method as in PMID 29866868; details: late-stage gametocytes >90% stages IV-V; 48 h incubation; ± SEM; cited from earlier work
[11] = system: CQ-resistant P. yoelii NS strain; details: Peters four-day test, mice, subcutaneous; ref S4 (24); cited from earlier work
[12] = system: asexual blood stages of Pf W2 (drug resistant); design: method as in PMID 29866868, PMID 31998692; details: asexual blood stage Pf W2, multidrug resistant; SYBR Green I; ± SEM; cited from earlier work
Toxoplasma gondii (Tg) = system: Toxoplasma gondii (Tg); design: method as in PMID 19635951; details: read-out: EC50 against Tg in vitro; cited from earlier work
[13] = single dose 10 mg/kg, healthy Aotus monkeys; cited from earlier work
[14] = system: asexual blood stages of Pf NF54 (drug sensitive); design: method as in PMID 29866868, PMID 31998692; details: asexual blood stage Pf NF54, CQ sensitive; SYBR Green I; ± SEM; cited from earlier work
[15] = system: fetal rat brain stem cells; details: cited from earlier work
[16] = system: CQ-sensitive P. berghei N strain; details: Peters four-day test, mice, ref S4 (24), cited from earlier work
[17] = system: early-stage (EG) Pf NF54 gametocytes; design: method as in PMID 29866868; details: early-stage gametocytes >95% stages II-III; 48 h incubation; ± SEM; cited from earlier work
[18] = system: asexual blood stages of Pf K1 (drug resistant); design: method as in PMID 29866868, PMID 31998692; details: asexual blood stage Pf K1, multidrug resistant; SYBR Green I; ± SEM; cited from earlier work

With `C[C@H]1[C@H](N2C=CS(=O)(=O)CC2)O[C@@H]2O[C@@]3(C)CC[C@H]4[C@H](C)CC[C@@H]1[C@@]24OO3` [M1 8, M1] the IC50 [1] was 13.4 ± 2.7 nM, the “RI = IC50 W2/IC50 NF54” value [2] was 0.86 and the IC50 ([2]; Plasmodium falciparum, asexual blood stage Pf W2, multidrug resistant, SYBR Green I, 96 h, ± SEM) was 2.26 ± 0.08 nM. For the same molecule, the IC50 (D6 (CQ sensitive)) was 4.7 ± 0.2 nM, the “fold greater human microsomal half-life than artemisone” value [3] was greater than 15 fold and the “fold greater human microsomal half-life than artemisone” value ([3]; listed as M1) was no less than 15 fold. For the same molecule, the IC50 [4] was 5 ± 0.6 nM, the IC50 ([5]; Plasmodium falciparum, NF54, 96 h, asexual blood stage Pf NF54, CQ sensitive, SYBR Green I, 96 h, ± SEM, read-out: IC50 NF54) was 2.63 ± 0.24 nM and the IC50 ([5]; Plasmodium falciparum, NF54, summary over NF54, K1 and W2 strains, read-out: IC50 against asexual Pf blood stage parasites) was roughly 2 nM. For the same molecule, the IC50 ([5]; summary over NF54, K1 and W2 strains, read-out: IC50 against asexual Pf blood stage parasites) was 1.5 to 2.6 nM, the “RI (resistance index) = IC50 K1/IC50 NF54” value [6] was 0.57 and the IC50 ([6]; Plasmodium falciparum, asexual blood stage Pf K1, multidrug resistant, SYBR Green I, 96 h, ± SEM) was 1.5 ± 0.23 nM. For the same molecule, the IC50 at 24 h [7] was greater than 50000 nM, the IC50 [8] was 2.5 ± 0.4 nM and the “inhibition of LG viability” value [9] was greater than 90%. For the same molecule, the IC50 (TM-C2B) was 8.6 ± 8.2 nM, the IC50 (7G8 (CQ resistant)) was 2.6 ± 0.8 nM and the IC50 (W2 (CQ resistant)) was 6.6 ± 0.4 nM.
For `C[C@H]1[C@H](OC(=O)CCC(=O)O)O[C@@H]2O[C@@]3(C)CC[C@H]4[C@H](C)CC[C@@H]1[C@@]24OO3` [Artesunate 4, Artesunate], the IC50 [10] is given as 259 ± 80 nM, the “P. yoelii ED90 sc” value [11] is given as 22.0 mg/kg and the IC50 [12] is given as 2.4 ± 0.4 nM. The EC50 (Toxoplasma gondii (Tg)) was 213 nM, the “ex vivo antimalarial activity observable up to (post dose)” value [13] was “up to 1 h” and the IC50 [14] was 3 ± 0.29 nM. The “Viability NOEC” value [15] was 0.1 µg/mL, the “Neurofilaments IC50” value ([15]; effect on the cytoskeleton on day 7, ref S4 (24)) was 5.0 µg/mL and the “P. berghei ED90 po” value ([16]; oral daily day 0-3) was 7.1 mg/kg. For the same molecule, the “P. berghei ED90 sc” value ([16]; subcutaneous daily day 0-3) was 7.2 mg/kg, the IC50 [17] was 62.8 ± 3 nM and the IC50 [4] was 2.9 ± 1.4 nM. The IC50 [8] was 1.4 ± 0.1 nM, the IC50 (TM-C2B) was 2.5 ± 0.5 nM and the IC50 (7G8 (CQ resistant)) was 1.5 ± 0.2 nM. The IC50 [18] was 4 ± 1 nM and the IC50 (W2 (CQ resistant)) was 3 ± 1.6 nM.
